Reference: patent US20250352524A1, “PREVENTION OF METASTATIC OUTGROWTH USING TEAD INHIBITORS” (Georgetown University, priority 2024, published 2025)

Tests used:
[1] = tested on: E0771 cells; experiment: Real Time Cell Analysis, proliferation of E0771 cells; type: cell-based, mouse; settings: increasing doses of VT107, cell index
Procedure: E0771 cells were injected into the mammary fat pad of C57BL/6 mice (Johnstone et al., 2015). When primary tumors became palpable at 3 weeks, mice were treated daily with VT107 or vehicle control. Mice weights were monitored throughout treatment (FIG. 8, Panel B). Primary tumors were surgically resected at week 4 and mice were euthanized at week 6 to inspect lungs for metastases (FIG. 9, Panel A)
Cell analysis was done using E-plates from xCELLigence, (Agilent, #5469830001) according to the manufacturer's protocol. For cell cytotoxicity, cancer cells (10,000-25,000 cells per well) were seeded and allowed to attach for 1-2 hours prior to the addition of immune cells and/or drug treatments. For cell proliferation, cancer cells were seeded at 5,000-10,000 cells per well with incremental doses of drug treatments or DMSO as a vehicle control. Cell index was measured by changes in electric impedance at 15 min intervals. TEAD inhibitors were obtained from Vivace therapeutics.

[2] = tested on: DCIS and DCIS-Δ4 mixed 3D spheres; experiment: Invasion of DCIS and DCIS-Δ4 mixed 3D spheres in collagen:matrigel mix; type: cell-based, human
Procedure: To determine iTEAD effect on lung immune microenvironment at steady state, naïve C57/BL6 mice were treated with iTEAD. […] In the absence of cancer cells in these naïve mice, no change in CD8+ T-cells was observed between treatment groups. […] On the cancer cell front, TEAD inhibition had no effect on proliferation yet reduced migration and 3D spheroid collective invasion of breast cancer cells in vitro.

[3] = tested on: lung resident macrophages; experiment: Cytokine array of conditioned media, isolated lung macrophages; type: cell-based, C57BL/6 mice
Source text: Due to the shifts in immune signaling observed in the lung tissue upon TEAD inhibition (FIG. 9), immune cell populations were first analyzed by flow cytometry in the lungs and spleens of tumor naïve mice. Consistent with the Cibersort analysis of RNA-seq data, there was a decrease in the monocytes population and an increase in the tissue-resident alveolar macrophages (AM) (FIG. 10, Panel A). […] Next, it was sought to determine the specific effects of iTEAD treatment on lung resident versus bone-marrow derived macrophages, as the dynamics of these cell populations are crucial for the establishment of the metastatic niche (Ries et al., 2014; Qian et al., 2011). Macrophages were retrieved from the lungs by isolating F4/80+ cells, a specific marker for murine macrophages, by FACS (fluorescence-activated cell sorting) as well as bone marrow-derived macrophages from the femurs of naïve C57BL/6 mice that were then differentiated in vitro using macrophage colony stimulating factor (M-CSF). Macrophages were treated with 1 μM of VT107 for 24 hours before the conditioned media was collected and analyzed on a cytokine array. […] There was no change in the level of the other cytokines detected (FIG. 10, Panel B).
Cells were grown in their recommended cell culture media and treated with […] VT107 for 24 or 72 hours. Conditioned media was collected and passed through a 0.2 micron PES filter then analyzed on a RayBio® Mouse Cytokine Array (#AAM-TCR-1) according to the manufacture's protocol. The array includes two spots for each cytokine. The luminescence signal was normalized to the positive control on each membrane, then to the vehicle treatment signal of each cytokine.

[4] = tested on: 4T1 spheres; experiment: 3D sphere co-culture assay, 4T1 spheres with T-cells and/or macrophages; type: cell-based, mouse; settings: for cleaved caspase-3 in 4T1 cells: 24 hours
Procedure: T-cells were isolated from the spleens of naïve mice, activated by CD3/CD28, and treated with either 1 μM iTEAD or vehicle. Peritoneal macrophages were isolated from the peritoneal lavage of naïve mice after attachment on culture dishes and treated with either 1 μM iTEAD or vehicle. The immune cells were mixed with tumor cells that were aggregated into spheres in u-shaped molds for 24 hours (FIG. 7).
To investigate whether the effect of iTEAD treatment on macrophages can enhance their crosstalk with T-cells in the lung microenvironment, peritoneal macrophages+/−iTEAD were first isolated and characterized as a model of resident macrophages for ex vivo experiments (FIG. 14, Panel A). It was observed that treatment with VT107 decreased gene expression of M2-like and fibrosis regulators, Aldh1a1 and Cc117 (Chen et al., 2020), as well as TEAD4 and its downstream target gene Ankrd1. […] The iTEAD pretreated peritoneal macrophages and untreated T-cells isolated from the spleen of tumor naïve mice (FIG. 14, Panel A) were then mixed for 5 hours before collecting the conditioned media for analysis. […] Next, these immune cell mixes were added to 4T1 spheres that were embedded into matrix. […] This effect was reversed by an IL12 neutralizing antibody. No change in cleaved caspase-3 in 4T1 cells in the presence of VT107-treated T-cells or macrophages alone, was detected at 24 hours (FIG. 14, Panels C and D). 4T1 cells were then plated and allowed to attach on electrode-coated arrays to monitor cancer cell viability before the addition of macrophages+/−iTEAD and T-cells. […] This reversal of T-cell cytotoxicity by IL12 antibodies was not observed in VT107-treated T-cells in the absence of macrophages (FIG. 15, Panel E) indicating a critical role for IL12 in the crosstalk between macrophages and T-cells.
The hippo pathway has been implicated in T-cell development and function (Du et al., 2014; Ueda et al., 2012). For example, YAP expression is essential for tumor immune suppression by Treg cells that attenuates CD8 T-cell immunity (Geng et al., 2017; Ni et al., 2018; Lebid et al., 2020). […] To investigate whether VT107 directly affected T-cells, T-cells treated with VT107 were co-cultured with 4T1 cells in 2D for 72 hours. […] To further confirm T-cell activation upon TEAD activity reduction, we used Jurkat cells, a CD4 positive human lymphoma cell line (Schneider et al., 1977). […] However, here we show the specific effect of TEAD reduction on granzyme gene expression and degranulation that result in the killing of cancer cells.
One thousand 4T1 cells were aggregated in 81-well agarose molds (Microtissues, #Z764019). […] Images were captured using the Olympus BX40 microscope, and DAB signal per sphere was quantified in imageJ and normalized to the number of nuclei. […]

[5] = tested on: 4T1 cancer cells; experiment: Real Time Cell Analysis, cytotoxicity of T-cells +/- macrophages towards 4T1 cells; type: cell-based, mouse
Source text: To investigate whether the effect of iTEAD treatment on macrophages can enhance their crosstalk with T-cells in the lung microenvironment, peritoneal macrophages+/−iTEAD were first isolated and characterized as a model of resident macrophages for ex vivo experiments (FIG. 14, Panel A). It was observed that treatment with VT107 decreased gene expression of M2-like and fibrosis regulators, Aldh1a1 and Cc117 (Chen et al., 2020), as well as TEAD4 and its downstream target gene Ankrd1. […] The iTEAD pretreated peritoneal macrophages and untreated T-cells isolated from the spleen of tumor naïve mice (FIG. 14, Panel A) were then mixed for 5 hours before collecting the conditioned media for analysis. […] Next, these immune cell mixes were added to 4T1 spheres that were embedded into matrix. […] This effect was reversed by an IL12 neutralizing antibody. No change in cleaved caspase-3 in 4T1 cells in the presence of VT107-treated T-cells or macrophages alone, was detected at 24 hours (FIG. 14, Panels C and D). 4T1 cells were then plated and allowed to attach on electrode-coated arrays to monitor cancer cell viability before the addition of macrophages+/−iTEAD and T-cells. […]
Cell analysis was done using E-plates from xCELLigence, (Agilent, #5469830001) according to the manufacturer's protocol. […] Cell index was measured by changes in electric impedance at 15 min intervals. […]

VT107
proliferation of E0771 in vitro [1]: did not impact | migration of breast cancer cells in vitro [2]: reduced | 3D spheroid collective invasion ([2]; vs control): reduced | level of the other cytokines detected ([3]; 1 μM VT107 24 hours, lung and bone marrow-derived macrophages): no change | secreted IL4 ([3]; 1 μM VT107 for 24 hours): significantly higher level | secreted IL12 ([3]; 1 μM VT107 for 24 hours): significantly higher level | cleaved caspase-3 in 4T1 cells ([4]; VT107-treated T-cells or macrophages alone): No change | cleaved caspase-3 IHC staining of 4T1 spheres ([4]; co-culture with T-cells treated with 1 μM VT107, 72 hours): increased | number of 4T1 cells per sphere ([4]; co-culture with T-cells treated with 1 μM VT107, 72 hours vs vehicle): significantly reduced | cleaved caspase-3 in 4T1 cells ([4]; iTEAD-treated macrophages and T-cells, spheres in matrix): elevated signal | cytotoxicity of T-cells alone ([5]; extended VT107 treatment): slight increase | T-cells' cytotoxicity towards 4T1 cells ([5]; macrophages pretreated 24 hrs with 1 μM VT107, compared to T-cells alone): significantly increased
